Results reported in patent publication EP3436445B1, “HISTONE DEMETHYLASE INHIBITORS” (Celgene Quanticel Research, Inc., priority 2016, dated 2017).

target: T1, FBXL10 (Homo sapiens, UniProt Q8NHM5); experiment: FBXL10 in vitro enzyme inhibition assay (AlphaScreen); format: biochemical; conditions: Table 3; 0.3 nM FBXL10, H3K36me2-biotin labeled peptide
T1 construct: purchased BPS Bioscience 50120
T1 sequence (Q8NHM5 1-650): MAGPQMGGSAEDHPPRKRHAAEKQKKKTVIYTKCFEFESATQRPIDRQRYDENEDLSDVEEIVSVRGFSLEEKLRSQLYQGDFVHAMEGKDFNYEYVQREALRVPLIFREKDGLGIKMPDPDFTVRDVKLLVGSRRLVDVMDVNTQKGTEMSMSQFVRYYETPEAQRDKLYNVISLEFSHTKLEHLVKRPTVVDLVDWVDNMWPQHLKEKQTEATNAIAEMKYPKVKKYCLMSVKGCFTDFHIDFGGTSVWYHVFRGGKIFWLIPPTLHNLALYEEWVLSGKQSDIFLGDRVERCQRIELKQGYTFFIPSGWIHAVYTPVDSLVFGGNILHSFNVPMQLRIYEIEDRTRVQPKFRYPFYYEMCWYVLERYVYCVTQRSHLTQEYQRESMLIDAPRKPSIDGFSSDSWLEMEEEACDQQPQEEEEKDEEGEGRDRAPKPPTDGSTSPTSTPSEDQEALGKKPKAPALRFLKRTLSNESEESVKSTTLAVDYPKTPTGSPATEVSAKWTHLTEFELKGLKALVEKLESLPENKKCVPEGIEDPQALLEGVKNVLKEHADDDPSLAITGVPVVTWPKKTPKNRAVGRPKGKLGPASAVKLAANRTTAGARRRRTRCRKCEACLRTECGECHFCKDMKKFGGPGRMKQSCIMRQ
Excerpt: This assay determines the ability of a test compound to inhibit FBXL11, FBXL10, and PHF8 demethylase activity. Baculovirus expressed FBXL11 (GenBank Accession #NM_012308, AA1-1162) was purchased from BPS Bioscience (Cat#50102). Baculovirus expressed FBXL10 (GenBank Accession #NM_032590, AA 1-650) was purchased from BPS Bioscience (Cat #50120). Baculovirus expressed PHF8 (GenBank Accession NP_055922.1) was purchased from Active Motif (Cat#31435).
The ability of test compounds to inhibit the activity of FBXL10 was determined in 384-well plate format under the following reaction conditions: 0.3 nM FBXL10, 30 nM H3K36me2-biotin labeled peptide (Anaspec cat # 64442), 0.2 µM alpha-ketoglutaric acid in assay buffer of 50 mM HEPES, pH7.3, 0.005% Brij35, 0.5 mM TCEP, 0.2 mg/ml BSA, 50 µM sodium L-ascorbate, 5 µM ammonium iron(II) sulfate. Reaction product is determined quantitatively by AlphaScreen detection after the addition of detection reagents anti-H3K36me1 antibody, AlphaScreen® Streptavidin-coated Donor beads, and AlphaScreen® Protein A Acceptor beads in 50 mM HEPES, pH7.3, 10 mM NaCl, 0.005% Brij35, 5 mM EDTA, 2 mg/ml BSA to final 10 µg/ml beads.
The assay reaction was initiated by the following: 3 µl of the mixture of 90 nM H3K36me2-biotin labeled peptide and 0.6 µM alpha-ketoglutaric acid with 3 µl of 11-point serial diluted inhibitor in 3% DMSO are added to each well of 384 well Proxiplate (Perkin Elmer), followed by the addition of 3 µl of 0.9 nM FBXL10 to initiate the reaction. The reaction mixture is incubated at room temperature for 1 hour, and terminated by the addition of 3 µl of appropriate dilution of anti H3K36me1 antibody in 50 mM HEPES, pH7.3, 10 mM NaCl, 0.005% Brij35, 5 mM EDTA, 2 mg/ml BSA. Plates will then incubated at room temperature for 40 minutes, followed by addition of 3 µl of 50 µg/ml AlphaScreen® Streptavidin-coated Donor beads and AlphaScreen® Protein A Acceptor beads in 50 mM HEPES, pH7.3, 10 mM NaCl, 0.005% Brij35, 5 mM EDTA, 2 mg/ml BSA. Plates will then be read by EnVision Multilabel Reader in AlphaScreen mode after minimum 2 hour incubation at room temperature. The AlphaScreen signal for each well is used to determine inhibition constant (IC50).

IC50, 100 to 1000 nM:
Clc1cccc(-n2cnc(-c3cc4[nH]nnc4cn3)c2)c1 [Example 51, 1-(3-chlorophenyl)-4-{1H-[1,2,3]triazolo[4,5-c]pyridin-6-yl}-1H-imidazole]

IC50, ≤ 100 nM:
c1ccc(Cn2cnc(-c3cc4[nH]nnc4cn3)c2)cc1 [Example 44, 1-benzyl-4-{1H-[1,2,3]triazolo[4,5-c]pyridin-6-yl}-1H-imidazole]
Clc1ccccc1-n1cnc(-c2cc3[nH]nnc3cn2)c1 [Example 50, 1-(2-chlorophenyl)-4-{1H-[1,2,3]triazolo[4,5-c]pyridin-6-yl}-1H-imidazole]
Clc1cccc(Cn2cnc(-c3cc4[nH]nnc4cn3)c2)c1 [Example 46, 1-[(3-chlorophenyl)methyl]-4-{1H-[1,2,3]triazolo[4,5-c]pyridin-6-yl}-1H-imidazole]
Clc1ccc(Cn2cnc(-c3cc4[nH]nnc4cn3)c2)cc1Cl [Example 48, 1-[(3,4-dichlorophenyl)methyl]-4-{1H-[1,2,3]triazolo[4,5-c]pyridin-6-yl}-1H-imidazole]
Clc1ccccc1Cn1cnc(-c2cc3[nH]nnc3cn2)c1 [Example 45, 1-[(2-chlorophenyl)methyl]-4-{1H-[1,2,3]triazolo[4,5-c]pyridin-6-yl}-1H-imidazole]

same assay, conditions: Table 5

IC50, 100 to 1000 nM:
FC(F)(F)COc1ccccc1Cn1cnc(-c2cc(-c3nn[nH]c3C(F)(F)F)ccn2)c1 [Example 76, 2-(1-{[2-(2,2,2-trifluoroethoxy)phenyl]methyl}-1H-imidazol-4-yl)-4-[5-(trifluoromethyl)-1H-1,2,3-triazol-4-yl]pyridine]
CC(C)(C)c1ccc(CCn2cnc(-c3cc(-c4nn[nH]c4C(F)(F)F)ccn3)c2)cc1 [Example 96, 2-{1-[2-(4-tert-butylphenyl)ethyl]-1H-imidazol-4-yl}-4-[5-(trifluoromethyl)-1H-1,2,3-triazol-4-yl]pyridine]
COc1cccc2c1C(Cn1cnc(-c3cc(-c4nn[nH]c4C(F)(F)F)ccn3)c1)CCC2 (stereo not drawn) [Example 107, 2-{1-[(8-methoxy-1,2,3,4-tetrahydronaphthalen-1-yl)methyl]-1H-imidazol-4-yl}-4-[5-(trifluoromethyl)-1H-1,2,3-triazol-4-yl]pyridine]
COc1ccc2c(c1)C(Cn1cnc(-c3cc(-c4nn[nH]c4C(F)(F)F)ccn3)c1)CCC2 (stereo not drawn) [Example 106, 2-{1-[(7-methoxy-1,2,3,4-tetrahydronaphthalen-1-yl)methyl]-1H-imidazol-4-yl}-4-[5-(trifluoromethyl)-1H-1,2,3-triazol-4-yl]pyridine]
FC(F)(F)c1[nH]nnc1-c1ccnc(-c2cn(CC3CCc4ccccc43)cn2)c1 (stereo not drawn) [Example 83, 2-{1-[(2,3-dihydro-1H-inden-1-yl)methyl]-1H-imidazol-4-yl}-4-[5-(trifluoromethyl)-1H-1,2,3-triazol-4-yl]pyridine]

IC50, ≤ 100 nM:
Cc1ccc(Cn2cnc(-c3cc(-c4nn[nH]c4C(F)(F)F)ccn3)c2)cc1 [Example 65, 2-{1-[(4-methylphenyl)methyl]-1H-imidazol-4-yl}-4-[5-(trifluoromethyl)-1H-1,2,3-triazol-4-yl]pyridine]
Fc1cccc(CCn2cnc(-c3cc(-c4nn[nH]c4C(F)(F)F)ccn3)c2)c1F [Example 79, 2-{1-[2-(2,3-difluorophenyl)ethyl]-1H-imidazol-4-yl}-4-[5-(trifluoromethyl)-1H-1,2,3-triazol-4-yl]pyridine]
FC(F)(F)c1[nH]nnc1-c1ccnc(-c2cn(CC3CCOc4ccccc43)cn2)c1 (stereo not drawn) [Example 98, 2-{1-[(3,4-dihydro-2H-1-benzopyran-4-yl)methyl]-1H-imidazol-4-yl}-4-[5-(trifluoromethyl)-1H-1,2,3-triazol-4-yl]pyridine]
Cc1ccc(Cn2cnc(-c3cc(-c4nn[nH]c4C(F)(F)F)ccn3)c2)c(F)c1 [Example 71, 2-{1-[(2-fluoro-4-methylphenyl)methyl]-1H-imidazol-4-yl}-4-[5-(trifluoromethyl)-1H-1,2,3-triazol-4-yl]pyridine]
Cc1cc(F)ccc1Cn1cnc(-c2cc(-c3nn[nH]c3C(F)(F)F)ccn2)c1 [Example 70, 2-{1-[(4-fluoro-2-methylphenyl)methyl]-1H-imidazol-4-yl}-4-[5-(trifluoromethyl)-1H-1,2,3-triazol-4-yl]pyridine]
Fc1ccc2c(c1)C(n1cnc(-c3cc(-c4nn[nH]c4C(F)(F)F)ccn3)c1)CC2 (stereo not drawn) [Example 85, 2-[1-(6-fluoro-2,3-dihydro-1H-inden-1-yl)-1H-imidazol-4-yl]-4-[5-(trifluoromethyl)-1H-1,2,3-triazol-4-yl]pyridine]
Cn1cnc(-c2cc(-c3nn[nH]c3C(F)(F)F)ccn2)c1-c1ccc(F)cc1 [Example 97, 2-[5-(4-fluorophenyl)-1-methyl-1H-imidazol-4-yl]-4-[5-(trifluoromethyl)-1H-1,2,3-triazol-4-yl]pyridine]
FC(F)(F)c1[nH]nnc1-c1ccnc(-c2cn(Cc3ccccc3Cl)cn2)c1 [Example 64, 2-{1-[(2-chlorophenyl)methyl]-1H-imidazol-4-yl}-4-[5-(trifluoromethyl)-1H-1,2,3-triazol-4-yl]pyridine]
Fc1ccc(Cn2cnc(-c3cc(-c4nn[nH]c4C(F)(F)F)ccn3)c2)c(F)c1 [Example 68, 2-{1-[(2,4-difluorophenyl)methyl]-1H-imidazol-4-yl}-4-[5-(trifluoromethyl)-1H-1,2,3-triazol-4-yl]pyridine]
Fc1ccc(CCn2cnc(-c3cc(-c4nn[nH]c4C(F)(F)F)ccn3)c2)c(F)c1 [Example 86, 2-{1-[2-(2,4-difluorophenyl)ethyl]-1H-imidazol-4-yl}-4-[5-(trifluoromethyl)-1H-1,2,3-triazol-4-yl]pyridine]
Fc1cc(F)c(CCn2cnc(-c3cc(-c4nn[nH]c4C(F)(F)F)ccn3)c2)cc1F [Example 81, 4-[5-(trifluoromethyl)-1H-1,2,3-triazol-4-yl]-2-{1-[2-(2,4,5-trifluorophenyl)ethyl]-1H-imidazol-4-yl}pyridine]
Fc1cc(F)c(CCn2cnc(-c3cc(-c4nn[nH]c4C(F)(F)F)ccn3)c2)c(F)c1 [Example 82, 4-[5-(trifluoromethyl)-1H-1,2,3-triazol-4-yl]-2-{1-[2-(2,4,6-trifluorophenyl)ethyl]-1H-imidazol-4-yl}pyridine]
COc1ccc(Cn2cnc(-c3cc(-c4nn[nH]c4C(F)(F)F)ccn3)c2)cc1 [Example 67, 2-{1-[(4-methoxyphenyl)methyl]-1H-imidazol-4-yl}-4-[5-(trifluoromethyl)-1H-1,2,3-triazol-4-yl]pyridine]
Cc1ccccc1Cn1cnc(-c2cc(-c3nn[nH]c3C(F)(F)F)ccn2)c1 [Example 66, 2-{1-[(2-methylphenyl)methyl]-1H-imidazol-4-yl}-4-[5-(trifluoromethyl)-1H-1,2,3-triazol-4-yl]pyridine]
FC(F)(F)c1[nH]nnc1-c1ccnc(-c2cn(CC3CCCc4ccccc43)cn2)c1 (stereo not drawn) [Example 58, 2-{1-[(1,2,3,4-tetrahydronaphthalen-1-yl)methyl]-1H-imidazol-4-yl}-4-[5-(trifluoromethyl)-1H-1,2,3-triazol-4-yl]pyridine]
FC(F)(F)c1[nH]nnc1-c1ccnc(-c2cn(Cc3ccccc3)cn2)c1 [Example 72, 2-(1-benzyl-1H-imidazol-4-yl)-4-[5-(trifluoromethyl)-1H-1,2,3-triazol-4-yl]pyridine]
